For data set [1], the target named is T1, Histone-lysine N-methyltransferase EZH2 (Homo sapiens, UniProt Q15910). The data set is described as follows: Inhibition of wild type EZH2 (unknown origin).
Data set [2] in a line: Distribution coefficient, log D of compound. In kind it is physicochemical. The note with it: octanol/water.
The nature of data set [3]: Apparent solubility of the compound. In kind it is physicochemical.
The target of data set [4] is T1, Histone-lysine N-methyltransferase EZH2. Nature of the data set: Inhibition of wild type EZH2 in human KARPAS-422 cells assessed as effect on H3K27Me3 levels. Type of data set: cell-based.
Data set [5] is described as follows: Drug level in mouse plasma at 120 mg/kg, po BID dosed using SEDDS formulation. Type of data set: ADME, organism-based. To be noted: in vivo.
Data set [6] in a line: Permeability in MDCK cells. The note with it: dog, read-out: permeability. In kind it is ADME, cell-based, Canis lupus familiaris.
Data set [7] relates to KARPAS-422. The data set is described as follows: Antitumor activity against human KARPAS-422 cells xenografted in mouse assessed as inhibition of tumor growth inhibition at 240 mg/kg/day dosed via SEDDS formulation for 30 days. The note with it: KARPAS-422, 720 h, read-out: TGI.
In data set [8] the test system is KARPAS-422. Nature of the data set: Inhibition of cell proliferation in human KARPAS-422 cells. In kind it is functional, cell-based.
Data set [9] concerns the target Histone-lysine N-methyltransferase EZH2 (Homo sapiens, UniProt Q15910, Y641N). Nature of the data set: Inhibition of wild type EZH2 Y641N mutant (unknown origin).
The nature of data set [10]: Thermodynamic solubility in 0.5% MC/0.1% polysorbate 80 aqueous vehicle. In kind it is physicochemical. The note with it: read-out: Therm_solubility.
Data set [11] can be described thus: Intrinsic clearance in human liver microsomes. The note with it: read-out: CLH. In kind it is ADME, Microsome.
The nature of data set [12]: Chemical stability in simulated intestinal fluid at pH 6.8. Type of data set: physicochemical.
For data set [13], the system named is KARPAS-422. Nature of the data set: Antitumor activity against human KARPAS-422 cells xenografted in mouse assessed as inhibition of tumor growth inhibition at 60 mg/kg/day dosed via MC formulation for 30 days. In kind it is functional. To be noted: KARPAS-422, 720 h, time 30 day, read-out: TGI.
Data set [14] concerns KARPAS-422. The data set is described as follows: Antitumor activity against human KARPAS-422 cells xenografted in mouse assessed as inhibition of tumor growth inhibition at 240 mg/kg/day dosed via SEDDS formulation for 30 days. Type of data set: functional, organism-based. The note with it: time 30.0 day.
The nature of data set [15]: Solubility in 0.5% MC formulation contained 1 equivalent of NaOH. The note with it: 0.5% MC formulation containing 1 equivalent of NaOH. Type of data set: physicochemical.
The test system of data set [16] is KARPAS-422. Nature of the data set: Antitumor activity against human KARPAS-422 cells xenografted in mouse assessed as inhibition of tumor growth inhibition at 240 mg/kg/day dosed via MC formulation for 30 days. Type of data set: functional. To be noted: KARPAS-422, 720 h, time 30 day, read-out: TGI.
For data set [17], the system named is KARPAS-422. The data set is described as follows: Antitumor activity against human KARPAS-422 cells xenografted in mouse assessed as inhibition of tumor growth inhibition at 147 mg/kg/day dosed via MC formulation for 30 days and measured up to 40 days after dosing cessation. Type of data set: functional, organism-based. To be noted: time 30.0 day.
Data set [18] can be described thus: Drug level in mouse plasma at 30 to 120 mg/kg, po BID. In kind it is ADME, organism-based. The note with it: in vivo, dose 30-120 mg/kg.
The nature of data set [19]: Drug level in rat plasma at 2000 mg/kg/day, po. To be noted: in vivo. In kind it is ADME, organism-based.
The nature of data set [20]: Drug metabolism in mouse plasma assessed as 5,8-dichloro-2-((4,6-dimethyl-2-oxo-1,2-dihydropyridin-3-yl)methyl)-7-(3,5-dimethylisoxazol-4-yl)-3,4-dihydroisoquinolin-1(2H)-one formation at 30 to 120 mg/kg, po BID. In kind it is ADME, organism-based. The note with it: in vivo, dose 30-120 mg/kg.
A short description of data set [21]: Chemical stability in simulated gastric fluid at pH 1.2. In kind it is physicochemical.
Data set [22] deals with KARPAS-422. The data set is described as follows: Antitumor activity against human KARPAS-422 cells xenografted in mouse assessed as inhibition of tumor growth inhibition at 120 mg/kg/day dosed via MC formulation for 30 days. Type of data set: functional. The note with it: KARPAS-422, 720 h, time 30 day, read-out: TGI.
The nature of data set [23]: Drug metabolism in rat plasma assessed as 5,8-dichloro-2-((4,6-dimethyl-2-oxo-1,2-dihydropyridin-3-yl)methyl)-7-(3,5-dimethylisoxazol-4-yl)-3,4-dihydroisoquinolin-1(2H)-one formation at 2000 mg/kg/day, po. In kind it is ADME, organism-based. The note with it: in vivo.
Data set [24] has as its system KARPAS-422. Nature of the data set: Antitumor activity against human KARPAS-422 cells xenografted in mouse assessed as inhibition of tumor growth inhibition at 60 to 240 mg/kg/day dosed via MC formulation for 30 days. Type of data set: functional, organism-based. The note with it: dose 60-240 mg/kg/day, time 30.0 day.

Converted amounts (≈) assume the structure as drawn. The source made the active and inactive calls. The rule behind the calls is not given here.

T1 sequence (Q15910 whole entry): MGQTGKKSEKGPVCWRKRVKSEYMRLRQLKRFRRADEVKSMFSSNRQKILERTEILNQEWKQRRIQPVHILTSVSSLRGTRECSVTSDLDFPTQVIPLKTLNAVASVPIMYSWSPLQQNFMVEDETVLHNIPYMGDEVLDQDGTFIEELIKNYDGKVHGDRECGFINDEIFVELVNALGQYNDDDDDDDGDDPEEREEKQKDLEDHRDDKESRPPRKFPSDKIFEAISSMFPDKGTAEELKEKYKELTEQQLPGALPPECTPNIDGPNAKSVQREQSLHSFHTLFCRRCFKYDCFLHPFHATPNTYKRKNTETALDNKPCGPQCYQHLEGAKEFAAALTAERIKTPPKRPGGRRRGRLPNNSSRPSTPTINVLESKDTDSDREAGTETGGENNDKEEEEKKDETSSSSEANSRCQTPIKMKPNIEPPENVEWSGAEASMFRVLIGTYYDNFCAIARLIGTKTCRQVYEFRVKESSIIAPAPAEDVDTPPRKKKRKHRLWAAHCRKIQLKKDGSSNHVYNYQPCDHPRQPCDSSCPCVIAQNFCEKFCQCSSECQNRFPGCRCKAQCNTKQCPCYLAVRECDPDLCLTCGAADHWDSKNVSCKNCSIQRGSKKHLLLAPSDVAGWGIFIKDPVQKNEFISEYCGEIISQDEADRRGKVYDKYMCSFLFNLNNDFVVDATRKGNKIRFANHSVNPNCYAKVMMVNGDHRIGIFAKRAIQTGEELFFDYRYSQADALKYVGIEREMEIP
Chain of Histone-lysine N-methyltransferase EZH2 (Homo sapiens, UniProt Q15910, Y641N) (Q15910 whole entry Y641N): as the sequence (Q15910 whole entry) above, with Y641N counted along it

Turning to `Cc1cc(C)c(CN2CCc3c(Cl)cc(-c4c(C)noc4C)c(Cl)c3C2=O)c(=O)[nH]1`, the inhibitory constant (Ki) in data set [1] stood at 1 nM. The compound further came in with a pH-dependent lipophilicity (logD) in [2] of 3.1. For the same compound, the solubility in data set [3] was 140 µM (≈ 62.5 µg/mL).
Turning to `Cc1cc(C)c(CN2CCc3c(Br)cc(-c4c(C)nnn4C)c(Cl)c3C2=O)c(=O)[nH]1`, the IC50 in [4] was determined as 30 nM; in the data set with KARPAS-422 [8], 36 nM. Moreover, in data set [5], the Drug uptake entry is “Active”. For the same compound, the Ki in data set [1] was 2 nM; in [9], 7 nM. Also, the Papp in [6] turned out to be 90 nm/s. In [2], this compound came in with a logD of 2.4. Also, the inhibition in vivo at 240 mg/kg/day in the data set on KARPAS-422 [7] came out at 98%. For the same compound, the solubility in data set [3] is 338 µM (≈ 166 µg/mL). Further, the solubility thermodynamic in data set [10] was determined as 41 µM (≈ 20.1 µg/mL). Also, in data set [11], the microsomal CLint came to 27.8 µL/min/mg.
As for `Cc1cc(C)n(COP(=O)(O)O)c(=O)c1CN1CCc2c(Br)cc(-c3c(C)nnn3C)c(Cl)c2C1=O`, the Stabilty in data set [12] and in [21] was 8 h each time. In the data set on KARPAS-422 [13], the inhibition in vivo at 60 mg/kg/day amounted to 37%. The TGI result in the data set on KARPAS-422 [14] and with KARPAS-422 [17] was “Active” each time. Also, the solubility in data set [15] was determined as 21600 µM. Moreover, the inhibition in vivo at 240 mg/kg/day with KARPAS-422 [16] was determined as 121%. In data set [18], this compound returned a Cp of under 1 ng/mL. In [19], the Drug uptake entry is “Not Active”. Further, the Drug metabolism entry in data set [20] is reported as “Dose-dependent effect”; in data set [23] it was “Metabolite_Detected”. For the same compound, in the data set with KARPAS-422 [22], the inhibition in vivo at 120 mg/kg/day turned out to be 59%. The TGI entry in the data set on KARPAS-422 [24] was “Dose-dependent effect”.

Source of the values: ChEMBL document CHEMBL4732175, “Design and Characterization of a Pyridone-Containing EZH2 Inhibitor Phosphate Prodrug” (J Med Chem, 2021).
